Laboratory results published in the supplement of paper PMC10307832.

What was measured:
Experiment in all cases: relative viability (nuclei count vs DMSO), 5 days (fraction); higher = more cells survive
[1] = test system: 201T
Procedure, shortened: (§1)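 Relative viability was taken as the ratio of nuclei in treated wells to nuclei in vehicle wells. Lung cancer cell lines in 1536-well plates received compounds by pin tool one day after seeding, either one drug alone or a fixed anchor-drug dose plus five library-drug doses (not always all listed) in √10 steps. Nuclei were counted on 4× images after 5 days of treatment, and values are medians of duplicate plates.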

[2] = test system: BEN
Procedure, shortened: as §1

[3] = test system: CAL-12T
Procedure, shortened: as §1

[4] = test system: ChaGo-K-1
Procedure, shortened: as §1

[5] = test system: EMC-BAC-2
Procedure, shortened: as §1

[6] = test system: H3255
Procedure, shortened: as §1

[7] = test system: HCC-15
Procedure, shortened: as §1

[8] = test system: HOP-62
Procedure, shortened: as §1

[9] = test system: LU99A
Procedure, shortened: as §1

[10] = test system: NCI-H1395
Procedure, shortened: as §1

[11] = test system: NCI-H1650
Procedure, shortened: as §1

[12] = test system: NCI-H1734
Procedure, shortened: as §1

[13] = test system: NCI-H1944
Procedure, shortened: as §1

[14] = test system: NCI-H2009
Procedure, shortened: as §1

[15] = test system: NCI-H2023
Procedure, shortened: as §1

[16] = test system: NCI-H2342
Procedure, shortened: as §1

[17] = test system: NCI-H2347
Procedure, shortened: as §1

[18] = test system: NCI-H23
Procedure, shortened: as §1

[19] = test system: NCI-H2405
Procedure, shortened: as §1

[20] = test system: NCI-H358
Procedure, shortened: as §1

[21] = test system: NCI-H441
Procedure, shortened: as §1

[22] = test system: NCI-H522
Procedure, shortened: as §1

[23] = test system: NCI-H650
Procedure, shortened: as §1

[24] = test system: SK-LU-1
Procedure, shortened: as §1

[25] = test system: SW 900
Procedure, shortened: as §1

Nc1cccc2c1CN(C1CCC(=O)NC1=O)C2=O (configuration not stated) [Lenalidomide] + Nc1nc2[nH]cc(CCc3ccc(C(=O)N[C@@H](CCC(=O)O)C(=O)O)cc3)c2c(=O)[nH]1 [Pemetrexed] (partner 0.2 µM)
relative viability ([1]; first compound 0.253 µM): 0.33
relative viability ([1]; first compound 0.8 µM): 0.325
relative viability ([1]; first compound 2.53 µM): 0.322
relative viability ([1]; first compound 8 µM): 0.287
relative viability ([2]; first compound 0.253 µM): 0.787
relative viability ([2]; first compound 0.8 µM): 0.608
relative viability ([2]; first compound 2.53 µM): 0.737
relative viability ([2]; first compound 8 µM): 0.673
relative viability ([3]; first compound 0.253 µM): 1.18
relative viability ([3]; first compound 0.8 µM): 1.32
relative viability ([3]; first compound 2.53 µM): 1.67
relative viability ([3]; first compound 8 µM): 1.57
relative viability ([4]; first compound 0.253 µM): 0.256
relative viability ([4]; first compound 0.8 µM): 0.255
relative viability ([4]; first compound 2.53 µM): 0.274
relative viability ([4]; first compound 8 µM): 0.26
relative viability ([5]; first compound 0.253 µM): 0.437
relative viability ([5]; first compound 0.8 µM): 0.392
relative viability ([5]; first compound 2.53 µM): 0.451
relative viability ([5]; first compound 8 µM): 0.463
relative viability ([6]; first compound 0.253 µM): 0.65
relative viability ([6]; first compound 0.8 µM): 0.565
relative viability ([6]; first compound 2.53 µM): 0.585
relative viability ([6]; first compound 8 µM): 0.605
relative viability ([7]; first compound 0.253 µM): 0.219
relative viability ([7]; first compound 2.53 µM): 0.231
relative viability ([7]; first compound 8 µM): 0.228
relative viability ([8]; first compound 0.253 µM): 0.356
relative viability ([8]; first compound 0.8 µM): 0.376
relative viability ([8]; first compound 2.53 µM): 0.287
relative viability ([8]; first compound 8 µM): 0.381
relative viability ([9]; first compound 0.253 µM): 0.188
relative viability ([9]; first compound 0.8 µM): 0.183
relative viability ([9]; first compound 2.53 µM): 0.169
relative viability ([9]; first compound 8 µM): 0.169
relative viability ([10]; first compound 0.253 µM): 0.875
relative viability ([10]; first compound 2.53 µM): 0.948
relative viability ([10]; first compound 8 µM): 0.874
relative viability ([11]; first compound 0.253 µM): 0.357
relative viability ([11]; first compound 0.8 µM): 0.357
relative viability ([11]; first compound 2.53 µM): 0.366
relative viability ([11]; first compound 8 µM): 0.53
relative viability ([12]; first compound 0.253 µM): 0.465
relative viability ([12]; first compound 0.8 µM): 0.465
relative viability ([12]; first compound 2.53 µM): 0.433
relative viability ([12]; first compound 8 µM): 0.479
relative viability ([13]; first compound 0.253 µM): 0.642
relative viability ([13]; first compound 2.53 µM): 0.691
relative viability ([13]; first compound 8 µM): 0.553
relative viability ([14]; first compound 0.253 µM): 0.988
relative viability ([14]; first compound 0.8 µM): 1.05
relative viability ([14]; first compound 2.53 µM): 1
relative viability ([14]; first compound 8 µM): 1.08
relative viability ([15]; first compound 0.253 µM): 0.259
relative viability ([15]; first compound 0.8 µM): 0.235
relative viability ([15]; first compound 2.53 µM): 0.246
relative viability ([15]; first compound 8 µM): 0.256
relative viability ([16]; first compound 0.253 µM): 0.868
relative viability ([16]; first compound 0.8 µM): 0.774
relative viability ([16]; first compound 2.53 µM): 0.771
relative viability ([16]; first compound 8 µM): 0.577
relative viability ([17]; first compound 0.253 µM): 0.405
relative viability ([17]; first compound 0.8 µM): 0.435
relative viability ([17]; first compound 2.53 µM): 0.415
relative viability ([17]; first compound 8 µM): 0.431
relative viability ([18]; first compound 0.253 µM): 0.589
relative viability ([18]; first compound 2.53 µM): 0.861
relative viability ([18]; first compound 8 µM): 0.694
relative viability ([19]; first compound 0.253 µM): 0.999
relative viability ([19]; first compound 0.8 µM): 0.988
relative viability ([19]; first compound 2.53 µM): 1.08
relative viability ([19]; first compound 8 µM): 0.94
relative viability ([20]; first compound 0.8 µM): 0.197
relative viability ([20]; first compound 2.53 µM): 0.182
relative viability ([20]; first compound 8 µM): 0.179
relative viability ([21]; first compound 0.253 µM): 0.27
relative viability ([21]; first compound 0.8 µM): 0.273
relative viability ([21]; first compound 2.53 µM): 0.268
relative viability ([21]; first compound 8 µM): 0.242
relative viability ([22]; first compound 0.253 µM): 1.05
relative viability ([22]; first compound 0.8 µM): 0.912
relative viability ([22]; first compound 2.53 µM): 1.11
relative viability ([22]; first compound 8 µM): 0.663
relative viability ([23]; first compound 0.253 µM): 0.902
relative viability ([23]; first compound 0.8 µM): 0.914
relative viability ([23]; first compound 2.53 µM): 1.07
relative viability ([23]; first compound 8 µM): 0.841
relative viability ([24]; first compound 0.253 µM): 1.04
relative viability ([24]; first compound 0.8 µM): 1.07
relative viability ([24]; first compound 2.53 µM): 1.12
relative viability ([24]; first compound 8 µM): 1.11
relative viability ([25]; first compound 2.53 µM): 0.509
relative viability ([25]; first compound 8 µM): 0.477

Nc1cccc2c1CN(C1CCC(=O)NC1=O)C2=O (configuration not stated) [Lenalidomide] + O=C(CCCCCCC(=O)Nc1ccccc1)NO [Vorinostat] (partner 1 µM)
relative viability ([1]; first compound 0.253 µM): 0.963
relative viability ([1]; first compound 0.8 µM): 0.791
relative viability ([1]; first compound 2.53 µM): 0.955
relative viability ([1]; first compound 8 µM): 0.859
relative viability ([2]; first compound 0.253 µM): 0.559
relative viability ([2]; first compound 0.8 µM): 0.5
relative viability ([2]; first compound 2.53 µM): 0.617
relative viability ([2]; first compound 8 µM): 0.545
relative viability ([3]; first compound 0.253 µM): 0.874
relative viability ([3]; first compound 0.8 µM): 0.887
relative viability ([3]; first compound 2.53 µM): 0.999
relative viability ([3]; first compound 8 µM): 0.907
relative viability ([4]; first compound 0.253 µM): 0.773
relative viability ([4]; first compound 0.8 µM): 0.753
relative viability ([4]; first compound 2.53 µM): 0.838
relative viability ([4]; first compound 8 µM): 0.694
relative viability ([5]; first compound 0.253 µM): 0.74
relative viability ([5]; first compound 0.8 µM): 0.42
relative viability ([5]; first compound 2.53 µM): 0.446
relative viability ([5]; first compound 8 µM): 0.335
relative viability ([6]; first compound 0.253 µM): 0.716
relative viability ([6]; first compound 0.8 µM): 0.515
relative viability ([6]; first compound 2.53 µM): 0.823
relative viability ([6]; first compound 8 µM): 0.862
relative viability ([7]; first compound 0.253 µM): 0.826
relative viability ([7]; first compound 0.8 µM): 0.855
relative viability ([7]; first compound 2.53 µM): 0.917
relative viability ([7]; first compound 8 µM): 0.795
relative viability ([8]; first compound 0.253 µM): 0.56
relative viability ([8]; first compound 0.8 µM): 0.565
relative viability ([8]; first compound 2.53 µM): 0.662
relative viability ([8]; first compound 8 µM): 0.519
relative viability ([9]; first compound 0.253 µM): 0.461
relative viability ([9]; first compound 0.8 µM): 0.425
relative viability ([9]; first compound 2.53 µM): 0.559
relative viability ([9]; first compound 8 µM): 0.263
relative viability ([10]; first compound 0.253 µM): 0.807
relative viability ([10]; first compound 2.53 µM): 0.736
relative viability ([10]; first compound 8 µM): 0.567
relative viability ([11]; first compound 0.253 µM): 0.545
relative viability ([11]; first compound 0.8 µM): 0.527
relative viability ([11]; first compound 2.53 µM): 0.543
relative viability ([11]; first compound 8 µM): 0.664
relative viability ([12]; first compound 0.253 µM): 0.855
relative viability ([12]; first compound 0.8 µM): 0.759
relative viability ([12]; first compound 2.53 µM): 0.871
relative viability ([12]; first compound 8 µM): 0.735
relative viability ([13]; first compound 0.253 µM): 0.543
relative viability ([13]; first compound 2.53 µM): 0.58
relative viability ([13]; first compound 8 µM): 0.44
relative viability ([14]; first compound 0.253 µM): 0.686
relative viability ([14]; first compound 0.8 µM): 0.72
relative viability ([14]; first compound 2.53 µM): 0.852
relative viability ([14]; first compound 8 µM): 0.769
relative viability ([15]; first compound 0.253 µM): 0.637
relative viability ([15]; first compound 0.8 µM): 0.732
relative viability ([15]; first compound 2.53 µM): 0.652
relative viability ([15]; first compound 8 µM): 0.468
relative viability ([16]; first compound 0.253 µM): 0.744
relative viability ([16]; first compound 0.8 µM): 0.599
relative viability ([16]; first compound 2.53 µM): 0.923
relative viability ([16]; first compound 8 µM): 0.654
relative viability ([17]; first compound 0.253 µM): 0.701
relative viability ([17]; first compound 0.8 µM): 0.611
relative viability ([17]; first compound 2.53 µM): 0.722
relative viability ([17]; first compound 8 µM): 0.448
relative viability ([18]; first compound 0.253 µM): 0.511
relative viability ([18]; first compound 2.53 µM): 0.747
relative viability ([18]; first compound 8 µM): 0.407
relative viability ([19]; first compound 0.253 µM): 1.12
relative viability ([19]; first compound 0.8 µM): 0.934
relative viability ([19]; first compound 2.53 µM): 1.09
relative viability ([19]; first compound 8 µM): 0.943
relative viability ([20]; first compound 0.8 µM): 0.748
relative viability ([20]; first compound 2.53 µM): 0.745
relative viability ([20]; first compound 8 µM): 0.72
relative viability ([21]; first compound 0.253 µM): 0.77
relative viability ([21]; first compound 0.8 µM): 0.757
relative viability ([21]; first compound 2.53 µM): 0.863
relative viability ([21]; first compound 8 µM): 0.944
relative viability ([22]; first compound 0.253 µM): 0.767
relative viability ([22]; first compound 0.8 µM): 0.86
relative viability ([22]; first compound 2.53 µM): 1.09
relative viability ([22]; first compound 8 µM): 0.781
relative viability ([23]; first compound 0.253 µM): 0.492
relative viability ([23]; first compound 0.8 µM): 0.446
relative viability ([23]; first compound 2.53 µM): 0.59
relative viability ([23]; first compound 8 µM): 0.322
relative viability ([24]; first compound 0.253 µM): 0.763
relative viability ([24]; first compound 0.8 µM): 0.877
relative viability ([24]; first compound 2.53 µM): 0.909
relative viability ([24]; first compound 8 µM): 0.759
relative viability ([25]; first compound 2.53 µM): 0.679
relative viability ([25]; first compound 8 µM): 0.429
